Patent US4820694A, “Modifications of 3-O-demethylmycinose in macrocin and lactenocin” (priority 1986, dated 1989)
In brackets after ≈: the same amount, converted by molar mass. Read-outs that look alike come from different tables or passages of the source.

Legend:
[1] = test system: Mycoplasma hyorhinis 29E; test: broth-dilution microtiter MIC test; type: cell-based; conditions: Mycoplasma, 29E
Description: (§1) The MIC's in Table III were determined by standard agar-dilution assays. The MIC's in Table IV were obtained using conventional brothdilution microtiter tests.

[2] = test system: Pasteurella hemolytica 22C; test: broth-dilution microtiter MIC test; type: cell-based; conditions: Pasteurella, 22C; broth-dilution microtiter; read-out: MIC
Description: as §1

[3] = test system: Pasteurella multocida 60A; test: broth-dilution microtiter MIC test; type: cell-based; conditions: Pasteurella multocida, 60A; broth-dilution microtiter; Avian isolate; read-out: MIC
Description: as §1

[4] = test system: Mycoplasma gallisepticum 15E; test: broth-dilution microtiter MIC test; type: cell-based; conditions: Mycoplasmoides gallisepticum, 15E
Description: as §1

[5] = test system: Bordetella bronchiseptica; test: broth-dilution microtiter MIC test; type: cell-based; conditions: Bordetella bronchiseptica; broth-dilution microtiter; read-out: MIC
Description: as §1

[6] = test system: Staphylococcus aureus 19C; test: broth-dilution microtiter MIC test; type: cell-based; conditions: Staphylococcus aureus, 19C
Description: as §1

[7] = test system: Mycoplasma synoviae 40A; test: broth-dilution microtiter MIC test; type: cell-based; conditions: Mycoplasmopsis synoviae, 40A
Description: as §1

[8] = test system: Pasteurella multocida 40G; test: broth-dilution microtiter MIC test; type: cell-based; conditions: Pasteurella multocida, 40G; broth-dilution microtiter; read-out: MIC
Description: as §1

[9] = test system: Mycoplasma gallisepticum 36H; test: broth-dilution microtiter MIC test; type: cell-based; conditions: Mycoplasmoides gallisepticum, 36H
Description: as §1

[10] = test system: Pasteurella hemolytica 41D; test: broth-dilution microtiter MIC test; type: cell-based; conditions: Pasteurella, 41D; broth-dilution microtiter; read-out: MIC
Description: as §1

[11] = test system: Pasteurella multocida 68C; test: broth-dilution microtiter MIC test; type: cell-based; conditions: Pasteurella multocida, 68C; broth-dilution microtiter; read-out: MIC
Description: as §1

[12] = test system: Streptococcus sp. 19F; test: broth-dilution microtiter MIC test; type: cell-based; conditions: Streptococcus, SP.19F
Description: as §1

[13] = test system: Mycoplasma gallisepticum 29C; test: broth-dilution microtiter MIC test; type: cell-based; conditions: Mycoplasmoides gallisepticum, 29C
Description: as §1

[14] = test system: Pasteurella multocida 22A; test: broth-dilution microtiter MIC test; type: cell-based; conditions: Pasteurella multocida, 22A; broth-dilution microtiter; read-out: MIC
Description: as §1

[15] = test system: Pasteurella hemolytica 23C; test: broth-dilution microtiter MIC test; type: cell-based; conditions: Pasteurella, 23C; broth-dilution microtiter; read-out: MIC
Description: as §1

[16] = test system: Pasteurella multocida 17E; test: broth-dilution microtiter MIC test; type: cell-based; conditions: Pasteurella multocida, 17E; broth-dilution microtiter; Bovine isolate; read-out: MIC
Description: as §1

[17] = test system: Streptococcus pyogenes C203; test: protection of mice experimentally infected with S. pyogenes C203; type: in vivo; conditions: mice, mg/kg × 2, doses given 1 and 4 hours postinfection, read-out: ED50
In short: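 Activity is given as ED50, the mg/kg dose (×2) protecting half of the mice infected with S. pyogenes C203. Compound was dosed 1 and 4 h after infection.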

[18] = test system: Streptococcus Group D 9960; test: standard agar-dilution MIC assay; type: cell-based; conditions: GROUPD9960, read-out: MIC
Description: as §1

[19] = test system: Staphylococcus aureus X400; test: standard agar-dilution MIC assay; type: cell-based; conditions: Staphylococcus aureus, X400
Description: as §1

[20] = test system: Staphylococcus epidermidis EPI1; test: standard agar-dilution MIC assay; type: cell-based; conditions: Staphylococcus epidermidis, EPI1
Description: as §1

[21] = test system: Staphylococcus aureus X1.1; test: standard agar-dilution MIC assay; type: cell-based; conditions: Staphylococcus aureus, X1.1
Description: as §1

[22] = test system: Streptococcus pyogenes C203; test: standard agar-dilution MIC assay; type: cell-based; conditions: Streptococcus pyogenes, C203
Description: as §1

[23] = test system: Staphylococcus aureus V41; test: standard agar-dilution MIC assay; type: cell-based; conditions: Staphylococcus aureus, V41
Description: as §1

[24] = test system: Haemophilus influenzae 76; test: standard agar-dilution MIC assay; type: cell-based; conditions: Haemophilus influenzae, 76; agar-dilution; Ampicillin-resistant strain; read-out: MIC
Description: as §1

[25] = test system: Staphylococcus epidermidis EP12; test: standard agar-dilution MIC assay; type: cell-based
Description: as §1

[26] = test system: Pseudomonas aeruginosa X239; test: standard agar-dilution MIC assay; type: cell-based; conditions: Pseudomonas aeruginosa, X239; agar-dilution; read-out: MIC
Description: as §1

[27] = test system: Escherichia coli EC14; test: standard agar-dilution MIC assay; type: cell-based; conditions: agar-dilution, read-out: MIC
Description: as §1

[28] = test system: Streptococcus Group D X66; test: standard agar-dilution MIC assay; type: cell-based; conditions: read-out: MIC
Description: as §1

[29] = test system: Haemophilus influenzae C.L.; test: standard agar-dilution MIC assay; type: cell-based; conditions: Haemophilus influenzae; agar-dilution; Ampicillin-sensitive strain; read-out: MIC
Description: as §1

[30] = test system: Klebsiella pneumoniae X68; test: standard agar-dilution MIC assay; type: cell-based; conditions: Klebsiella pneumoniae, X68; agar-dilution; read-out: MIC
Description: as §1

[31] = test system: Streptococcus pneumoniae Park I; test: microbe, parasite or virus in culture; type: cell-based; conditions: Streptococcus pneumoniae
Description: as §1

[32] = test system: Staphylococcus aureus S13E; test: microbe, parasite or virus in culture; type: cell-based; conditions: Staphylococcus aureus, S13E
Description: as §1

Compound	MIC [1]	MIC [2]	MIC [3]	MIC [4]	MIC [5]	MIC [6]	MIC [7]	MIC [8]	MIC [9]	MIC [10]	MIC [11]	MIC [12]	MIC [13]	MIC [14]	MIC [15]	MIC [16]	ED50 ([17]; C203, Oral)	ED50 ([17]; C203, sc, Subcutaneous)	MIC [18]	MIC [19]	also measured
CCC1OC(=O)CC(O)C(C)C(OC2OC(C)C(OC3CC(C)(O)C(O)C(C)O3)C(N(C)C)C2OC(C)=O)C(CC=O)CC(C)C(=O)C=CC(C)=CC1COC1OC(C)C(OC(=O)CC(C)C)C(OC(=O)CC(C)C)C1OC (stereo not drawn) [Compound 7, 2'-O-ACETYL-3'",4'"-di-O-isovaleryl-macrocin]	6.25 µg/mL (≈ 5.62 µM)	> 50 µg/mL	> 50 µg/mL	12.5 µg/mL (≈ 11.2 µM)	> 50 µg/mL	12.5 µg/mL (≈ 11.2 µM)	3.12 µg/mL (≈ 2.8 µM)	> 50 µg/mL	50 µg/mL (≈ 44.9 µM)	> 50 µg/mL	> 50 µg/mL	3.12 µg/mL (≈ 2.8 µM)	3.12 µg/mL (≈ 2.8 µM)	> 50 µg/mL	> 50 µg/mL	> 50 µg/mL	71.4 mg/kg	> 10 mg/kg	8 µg/mL (≈ 7.19 µM)	16 µg/mL (≈ 14.4 µM)	MIC [20]: 8 µg/mL (≈ 7.19 µM); MIC [21]: 8 µg/mL (≈ 7.19 µM); MIC [22]: 4 µg/mL (≈ 3.6 µM); MIC [23]: 8 µg/mL (≈ 7.19 µM); MIC [24]: > 128 µg/mL; MIC [25]: 8 µg/mL (≈ 7.19 µM); MIC [26]: > 128 µg/mL; MIC [27]: > 128 µg/mL; MIC [28]: 16 µg/mL (≈ 14.4 µM); MIC [29]: > 128 µg/mL; MIC [30]: > 128 µg/mL; MIC [31]: 2 µg/mL (≈ 1.8 µM); MIC [32]: 8 µg/mL (≈ 7.19 µM)
CCC1OC(=O)CC(O)C(C)C(OC2OC(C)C(OC3CC(C)(O)C(O)C(C)O3)C(N(C)C)C2OC(C)=O)C(CC=O)CC(C)C(=O)C=CC(C)=CC1COC1OC(C)C(OC(=O)COc2ccccc2)C(OC(=O)COc2ccccc2)C1OC (stereo not drawn) [Compound 15, 2'-O-Acetyl-3'",4'"-di-O-phenoxyacetyl-macrocin]	6.25 µg/mL (≈ 5.16 µM)	> 50 µg/mL	> 50 µg/mL	50 µg/mL (≈ 41.2 µM)	> 50 µg/mL	25 µg/mL (≈ 20.6 µM)	3.12 µg/mL (≈ 2.57 µM)	> 50 µg/mL	50 µg/mL (≈ 41.2 µM)	> 50 µg/mL	> 50 µg/mL	3.12 µg/mL (≈ 2.57 µM)	6.25 µg/mL (≈ 5.16 µM)	> 50 µg/mL	> 50 µg/mL	> 50 µg/mL	87.1 mg/kg	> 10 mg/kg	32 µg/mL (≈ 26.4 µM)	64 µg/mL (≈ 52.8 µM)	MIC [20]: 32 µg/mL (≈ 26.4 µM); MIC [21]: 4 µg/mL (≈ 3.3 µM); MIC [22]: 4 µg/mL (≈ 3.3 µM); MIC [23]: 8 µg/mL (≈ 6.6 µM); MIC [24]: > 128 µg/mL; MIC [25]: 32 µg/mL (≈ 26.4 µM); MIC [26]: > 128 µg/mL; MIC [27]: > 128 µg/mL; MIC [28]: 32 µg/mL (≈ 26.4 µM); MIC [29]: > 128 µg/mL; MIC [30]: > 128 µg/mL; MIC [31]: 0.5 µg/mL (≈ 0.412 µM); MIC [32]: 32 µg/mL (≈ 26.4 µM)
